In general, IC50 refers to the midpoint of a concentration-inhibition curve.

The assay relates to SH-SY5Y. Description: Inhibitory concentration against Human SH-SY5Y neuroblastoma cells. In kind it is functional, cell-based.
`COc1ccc(/C=C\c2cc(OC)c(OC)c(OC)c2)cc1OCCN(CCCl)CCCl` displayed an IC50 of 230 nM.
The same measure for `COc1ccc(/C=C\c2cc(OC)c(OC)c(OC)c2)cc1OC(=O)CCCc1ccc(N(CCCl)CCCl)cc1`: 0.64 nM; for `COc1ccc(/C=C\c2cc(OC)c(OC)c(OC)c2)cc1N(CCO)CCO`: above 10000 nM.
As to `COc1ccc(/C=C\c2cc(OC)c(OC)c(OC)c2)cc1N(CCCl)CCCl`, the IC50 came out at 860 nM.
The same measure for `COc1ccc(/C=C\c2cc(OC)c(OC)c(OC)c2)cc1O` [COMBRETASTATIN A4]: 1.5 nM.

Values taken from ChEMBL document CHEMBL1142751, “Synthesis and biological activity of mustard derivatives of combretastatins” (Bioorg Med Chem Lett, 2005).
